Activity calls are given as the source filed them. The calls are words filed in the database; no cut-off is given here.
How the values were obtained:
[1] = target: T1, DNA topoisomerase 2-alpha (Homo sapiens, UniProt P11388); experiment: Poison activity at human Topo2alpha expressed in baculovirus-infected insect cells using pBR322 as substrate assessed as concentration required to observe the same amount of topo2/DNA cleavage complex generated by etoposide at 20 uM after 6 minutes by ethidium bromide staining based agarose gel electrophoresis
DU-145 = experiment: Antiproliferative activity against human DU145 cells after 72 hrs by MTT assay; type: functional, cell-based; settings: DU-145, 72 h
MCF7 = experiment: Antiproliferative activity against human MCF7 cells after 72 hrs by MTT assay; type: functional, cell-based; settings: MCF7, 72 h
[2] = target: T1, DNA topoisomerase 2-alpha; experiment: Inhibition of human topoisomerase 2alpha expressed in baculovirus-infected insect cells assessed as reduction in pBR322 supercoiled DNA relaxation after 60 mins by ethidium bromide staining based agarose gel electrophoresis
Bos taurus [3] = organism: Bos taurus; experiment: Binding affinity to calf thymus DNA at 50 uM by UV-spectrophotometric analysis
HeLa [4] = experiment: Antiproliferative activity against human HeLa cells after 72 hrs by MTT assay; type: functional, cell-based
Bos taurus [5] = organism: Bos taurus; experiment: Binding affinity to calf thymus DNA in absence of topo2 enzyme by circular dichroism titration analysis
A549 = experiment: Antiproliferative activity against human A549 cells after 72 hrs by MTT assay; type: functional, cell-based; settings: A549, 72 h
[6] = target: T1, DNA topoisomerase 2-alpha; experiment: Poison activity at human Topo2alpha expressed in baculovirus-infected insect cells using pBR322 as substrate assessed as topo2/DNA cleavage complex generation after 6 minutes by ethidium bromide staining based agarose gel electrophoresis
HeLa [7] = experiment: Inhibition of human of DNA topoisomerase 2 in human HeLa cells assessed as induction of H2AX phosphorylation at 10 uM after 90 mins by NuPAGE based electrophoresis; type: cell-based

T1 sequence (P11388 whole entry): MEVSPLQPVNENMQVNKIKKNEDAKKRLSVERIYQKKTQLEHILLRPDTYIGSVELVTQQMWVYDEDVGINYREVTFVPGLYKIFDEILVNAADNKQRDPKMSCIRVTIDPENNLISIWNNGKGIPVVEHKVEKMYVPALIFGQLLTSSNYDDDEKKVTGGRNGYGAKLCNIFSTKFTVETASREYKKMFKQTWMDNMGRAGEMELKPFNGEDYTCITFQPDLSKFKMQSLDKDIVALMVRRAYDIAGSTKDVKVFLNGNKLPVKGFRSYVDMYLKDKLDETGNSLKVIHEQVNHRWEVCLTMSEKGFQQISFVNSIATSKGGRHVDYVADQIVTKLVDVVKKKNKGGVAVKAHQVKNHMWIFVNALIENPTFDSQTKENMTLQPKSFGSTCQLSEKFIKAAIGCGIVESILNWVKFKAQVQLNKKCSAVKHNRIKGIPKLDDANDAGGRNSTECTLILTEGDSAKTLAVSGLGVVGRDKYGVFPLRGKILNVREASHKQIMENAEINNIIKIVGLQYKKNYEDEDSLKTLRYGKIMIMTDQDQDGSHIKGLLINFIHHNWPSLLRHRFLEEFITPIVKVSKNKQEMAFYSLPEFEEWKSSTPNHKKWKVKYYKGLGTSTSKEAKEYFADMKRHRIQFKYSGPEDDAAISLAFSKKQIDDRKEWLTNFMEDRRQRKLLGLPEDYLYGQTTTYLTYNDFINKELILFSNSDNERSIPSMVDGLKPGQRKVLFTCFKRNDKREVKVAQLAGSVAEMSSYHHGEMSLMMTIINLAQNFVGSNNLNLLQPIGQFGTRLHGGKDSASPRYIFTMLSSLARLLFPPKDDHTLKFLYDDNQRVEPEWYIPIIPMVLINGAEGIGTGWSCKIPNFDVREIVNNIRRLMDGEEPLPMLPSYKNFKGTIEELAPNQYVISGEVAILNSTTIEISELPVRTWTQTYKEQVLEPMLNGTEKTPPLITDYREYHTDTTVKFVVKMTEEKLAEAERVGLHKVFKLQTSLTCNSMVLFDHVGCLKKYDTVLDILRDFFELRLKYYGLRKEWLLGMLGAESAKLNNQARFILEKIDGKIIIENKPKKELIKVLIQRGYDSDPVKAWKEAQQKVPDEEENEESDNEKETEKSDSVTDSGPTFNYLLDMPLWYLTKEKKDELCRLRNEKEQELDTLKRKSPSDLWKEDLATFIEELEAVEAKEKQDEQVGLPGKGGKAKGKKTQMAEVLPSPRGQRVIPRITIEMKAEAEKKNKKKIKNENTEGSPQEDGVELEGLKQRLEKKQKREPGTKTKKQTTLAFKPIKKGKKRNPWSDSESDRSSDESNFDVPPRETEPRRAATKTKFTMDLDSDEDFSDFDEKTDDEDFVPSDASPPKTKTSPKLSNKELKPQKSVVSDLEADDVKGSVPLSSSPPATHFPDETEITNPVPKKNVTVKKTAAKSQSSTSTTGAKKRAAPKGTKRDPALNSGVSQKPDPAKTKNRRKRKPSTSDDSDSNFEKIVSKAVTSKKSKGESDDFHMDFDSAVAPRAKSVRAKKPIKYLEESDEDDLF

COc1cc(NC(=O)c2c(O)n(-c3ccccc3)c(=S)n(-c3ccccc3)c2=O)cc(OC)c1O
Activity [1]: 200 µM | IC50 (DU-145): 26.7 µM | IC50 (MCF7): 53.5 µM | IC50 [2]: 120 µM | Activity (Bos taurus [3]): inactive | IC50 (HeLa [4]): 18.1 µM | Activity (Bos taurus [5]): inactive | IC50 (A549): 17.5 µM

COc1cccc(NC(=O)c2c(O)n(-c3ccccc3)c(=S)n(-c3ccccc3)c2=O)c1
Activity [1]: 100 µM | IC50 (DU-145): 12.5 µM | IC50 (MCF7): 14 µM | IC50 [2]: 30 µM | Activity (Bos taurus [3]): inactive | IC50 (HeLa [4]): 8.5 µM | Activity (Bos taurus [5]): inactive | IC50 (A549): 6.9 µM

O=C1NC(=S)NC(=O)C1C(=O)Nc1ccccc1 [MERBARONE]
Activity [6]: inactive | IC50 (DU-145): 18.9 µM | IC50 (MCF7): 83.9 µM | IC50 [2]: 120 µM | Activity (Bos taurus [3]): inactive | IC50 (HeLa [4]): 62.3 µM | IC50 (A549): 40 µM

COc1cc([C@@H]2c3cc4c(cc3[C@@H](O[C@@H]3O[C@@H]5CO[C@@H](C)O[C@H]5[C@H](O)[C@H]3O)[C@H]3COC(=O)[C@H]23)OCO4)cc(OC)c1O [ETOPOSIDE]
IC50 (DU-145): 1 µM | IC50 (MCF7): 10.5 µM | Activity (Bos taurus [3]): inactive | IC50 (HeLa [4]): 2.4 µM | IC50 (A549): 1.3 µM

O=C(Nc1ccc(O)cc1)c1c(O)n(-c2ccccc2)c(=S)n(-c2ccccc2)c1=O
Activity [1]: 200 µM | IC50 (DU-145): 42.5 µM | IC50 (MCF7): 66.1 µM | IC50 [2]: 150 µM | Activity (Bos taurus [3]): inactive | IC50 (HeLa [4]): 42.9 µM | Activity (Bos taurus [5]): inactive | IC50 (A549): 37.1 µM

O=C(Nc1ccccc1)c1c(O)n(-c2ccccc2)c(=S)n(-c2ccccc2)c1=O
Activity [1]: 200 µM | IC50 (DU-145): 16.8 µM | IC50 (MCF7): 13.6 µM | IC50 [2]: 5 µM | Activity (Bos taurus [3]): inactive | IC50 (HeLa [4]): 10.8 µM | Activity (Bos taurus [5]): inactive | IC50 (A549): 9.2 µM | inhibition (HeLa [7]): Active

O=C(Nc1cccc(O)c1)c1c(O)n(-c2ccccc2)c(=S)n(-c2ccccc2)c1=O
Activity [6]: inactive | IC50 (DU-145): 49.6 µM | IC50 (MCF7): 94.2 µM | IC50 [2]: 200 µM | Activity (Bos taurus [3]): inactive | IC50 (HeLa [4]): 39.1 µM | Activity (Bos taurus [5]): inactive | IC50 (A549): 59.4 µM
